{"source": "PubChem BioAssay AID1259407", "about": "(Chemical Carcinogenesis Research Information System (CCRIS), 2018)", "system": "CCRIS mutagenicity, Ames/micronucleus/aberration tests", "test": "CCRIS mutagenicity studies", "note": "Active and inactive are the calls of the source. No rule for the calls is given here."}
{"compound": "CCCCNC(=O)n1c(NC(=O)OC)nc2ccccc21", "values": [{"measurement": "mutagenic call", "setting": "End Point: IN VIVO CHROMOSOMAL ABERRATIONS, Test System: BONE MARROW CELLS, Species: MOUSE, Strain/Sex: SWISS/MALE, Route: DIET (ORAL)", "result": "active; positive at all dose levels (structural and ploidy changes, robertsonian translo"}, {"measurement": "mutagenic call", "setting": "Test System: AMES SALMONELLA TYPHIMURIUM, Strain/Indicator: TA97, Metabolic Activation: HAMSTER, LIVER, S-9, AROCLOR 1254 (10%), Method: PREINCUBATION", "result": "inactive; negative"}, {"measurement": "mutagenic call", "setting": "Test System: AMES SALMONELLA TYPHIMURIUM, Strain/Indicator: TA97, Metabolic Activation: HAMSTER, LIVER, S-9, AROCLOR 1254 (30%), Method: PREINCUBATION", "result": "inactive; negative"}, {"measurement": "mutagenic call", "setting": "Test System: AMES SALMONELLA TYPHIMURIUM, Strain/Indicator: TA97, Metabolic Activation: NONE, Method: PREINCUBATION", "result": "inactive; negative"}, {"measurement": "mutagenic call", "setting": "Test System: AMES SALMONELLA TYPHIMURIUM, Strain/Indicator: TA97, Metabolic Activation: RAT, LIVER, S-9, AROCLOR 1254 (10%), Method: PREINCUBATION", "result": "inactive; negative"}, {"measurement": "mutagenic call", "setting": "Test System: AMES SALMONELLA TYPHIMURIUM, Strain/Indicator: TA97, Metabolic Activation: RAT, LIVER, S-9, AROCLOR 1254 (30%), Method: PREINCUBATION", "result": "inactive; negative"}, {"measurement": "mutagenic call", "setting": "Test System: AMES SALMONELLA TYPHIMURIUM, Strain/Indicator: TA97A, Metabolic Activation: NONE, Method: STANDARD PLATE", "result": "inactive; negative"}, {"measurement": "mutagenic call", "setting": "Test System: AMES SALMONELLA TYPHIMURIUM, Strain/Indicator: TA97A, Metabolic Activation: PLANT, HOMOGENATE, S-14, Method: STANDARD PLATE", "result": "inactive; negative"}, {"measurement": "mutagenic call", "setting": "Test System: AMES SALMONELLA TYPHIMURIUM, Strain/Indicator: TA97A, Metabolic Activation: S-9, Method: STANDARD PLATE", "result": "inactive; negative"}, {"measurement": "mutagenic call", "setting": "Test System: AMES SALMONELLA TYPHIMURIUM, Strain/Indicator: TA98, Metabolic Activation: HAMSTER, LIVER, S-9, 1254 (10%), Method: PREINCUBATION", "result": "inactive; negative"}, {"measurement": "mutagenic call", "setting": "Test System: AMES SALMONELLA TYPHIMURIUM, Strain/Indicator: TA98, Metabolic Activation: HAMSTER, LIVER, S-9, AROCLOR 1254 (30%), Method: PREINCUBATION", "result": "inactive; negative"}, {"measurement": "mutagenic call", "setting": "Test System: AMES SALMONELLA TYPHIMURIUM, Strain/Indicator: TA98, Metabolic Activation: NONE, Method: PREINCUBATION", "result": "inactive; negative"}, {"measurement": "mutagenic call", "setting": "Test System: AMES SALMONELLA TYPHIMURIUM, Strain/Indicator: TA98, Metabolic Activation: PLANT, HOMOGENATE, S-14, Method: STANDARD PLATE", "result": "inactive; negative"}, {"measurement": "mutagenic call", "setting": "Test System: AMES SALMONELLA TYPHIMURIUM, Strain/Indicator: TA98, Metabolic Activation: RAT, LIVER, S-9, AROCLOR 1254 (10%), Method: PREINCUBATION", "result": "inactive; negative"}, {"measurement": "mutagenic call", "setting": "Test System: AMES SALMONELLA TYPHIMURIUM, Strain/Indicator: TA98, Metabolic Activation: RAT, LIVER, S-9, AROCLOR 1254 (30%), Method: PREINCUBATION", "result": "inactive; negative"}, {"measurement": "mutagenic call", "setting": "Test System: AMES SALMONELLA TYPHIMURIUM, Strain/Indicator: TA98, Metabolic Activation: RAT, LIVER, S-9, AROCLOR 1254, Method: STANDARD PLATE", "result": "inactive; negative"}, {"measurement": "mutagenic call", "setting": "Test System: AMES SALMONELLA TYPHIMURIUM, Strain/Indicator: TA98, Metabolic Activation: RAT, LIVER, S-9, AROCLOR, Method: STANDARD PLATE", "result": "inactive; negative"}, {"measurement": "mutagenic call", "setting": "Test System: AMES SALMONELLA TYPHIMURIUM, Strain/Indicator: TA98, Metabolic Activation: S-9, Method: STANDARD PLATE", "result": "inactive; negative"}, {"measurement": "mutagenic call", "setting": "Test System: AMES SALMONELLA TYPHIMURIUM, Strain/Indicator: TA100, Metabolic Activation: HAMSTER, LIVER, S-9, AROCLOR 1254 (10%), Method: PREINCUBATION", "result": "inactive; negative"}, {"measurement": "mutagenic call", "setting": "Test System: AMES SALMONELLA TYPHIMURIUM, Strain/Indicator: TA100, Metabolic Activation: HAMSTER, LIVER, S-9, AROCLOR 1254 (30%), Method: PREINCUBATION", "result": "inactive; negative"}, {"measurement": "mutagenic call", "setting": "Test System: AMES SALMONELLA TYPHIMURIUM, Strain/Indicator: TA100, Metabolic Activation: NONE, Method: PREINCUBATION", "result": "inactive; negative"}, {"measurement": "mutagenic call", "setting": "Test System: AMES SALMONELLA TYPHIMURIUM, Strain/Indicator: TA100, Metabolic Activation: PLANT, HOMOGENATE, S-14, Method: STANDARD PLATE", "result": "inactive; negative"}, {"measurement": "mutagenic call", "setting": "Test System: AMES SALMONELLA TYPHIMURIUM, Strain/Indicator: TA100, Metabolic Activation: RAT, LIVER, S-9, AROCLOR 1254 (10%), Method: PREINCUBATION", "result": "inactive; negative"}, {"measurement": "mutagenic call", "setting": "Test System: AMES SALMONELLA TYPHIMURIUM, Strain/Indicator: TA100, Metabolic Activation: RAT, LIVER, S-9, AROCLOR 1254 (30%), Method: PREINCUBATION", "result": "inactive; negative"}, {"measurement": "mutagenic call", "setting": "Test System: AMES SALMONELLA TYPHIMURIUM, Strain/Indicator: TA100, Metabolic Activation: RAT, LIVER, S-9, AROCLOR 1254, Method: STANDARD PLATE", "result": "inactive; negative"}, {"measurement": "mutagenic call", "setting": "Test System: AMES SALMONELLA TYPHIMURIUM, Strain/Indicator: TA100, Metabolic Activation: RAT, LIVER, S-9, AROCLOR, Method: STANDARD PLATE", "result": "inactive; negative"}, {"measurement": "mutagenic call", "setting": "Test System: AMES SALMONELLA TYPHIMURIUM, Strain/Indicator: TA100, Metabolic Activation: S-9, Method: STANDARD PLATE", "result": "inactive; negative"}, {"measurement": "mutagenic call", "setting": "Test System: AMES SALMONELLA TYPHIMURIUM, Strain/Indicator: TA1535, Metabolic Activation: HAMSTER, LIVER, S-9, AROCLOR 1254 (10%), Method: PREINCUBATION", "result": "inactive; negative"}, {"measurement": "mutagenic call", "setting": "Test System: AMES SALMONELLA TYPHIMURIUM, Strain/Indicator: TA1535, Metabolic Activation: HAMSTER, LIVER, S-9, AROCLOR 1254 (30%), Method: PREINCUBATION", "result": "inactive; negative"}, {"measurement": "mutagenic call", "setting": "Test System: AMES SALMONELLA TYPHIMURIUM, Strain/Indicator: TA1535, Metabolic Activation: NONE, Method: PREINCUBATION", "result": "inactive; negative"}, {"measurement": "mutagenic call", "setting": "Test System: AMES SALMONELLA TYPHIMURIUM, Strain/Indicator: TA1535, Metabolic Activation: PLANT, HOMOGENATE, S-14, Method: STANDARD PLATE", "result": "inactive; negative"}, {"measurement": "mutagenic call", "setting": "Test System: AMES SALMONELLA TYPHIMURIUM, Strain/Indicator: TA1535, Metabolic Activation: RAT, LIVER, S-9, AROCLOR 1254 (10%), Method: PREINCUBATION", "result": "inactive; negative"}, {"measurement": "mutagenic call", "setting": "Test System: AMES SALMONELLA TYPHIMURIUM, Strain/Indicator: TA1535, Metabolic Activation: RAT, LIVER, S-9, AROCLOR 1254 (30%), Method: PREINCUBATION", "result": "inactive; negative"}, {"measurement": "mutagenic call", "setting": "Test System: AMES SALMONELLA TYPHIMURIUM, Strain/Indicator: TA1535, Metabolic Activation: RAT, LIVER, S-9, AROCLOR 1254, Method: STANDARD PLATE", "result": "inactive; negative"}, {"measurement": "mutagenic call", "setting": "Test System: AMES SALMONELLA TYPHIMURIUM, Strain/Indicator: TA1535, Metabolic Activation: RAT, LIVER, S-9, AROCLOR, Method: STANDARD PLATE", "result": "inactive; negative"}, {"measurement": "mutagenic call", "setting": "Test System: AMES SALMONELLA TYPHIMURIUM, Strain/Indicator: TA1535, Metabolic Activation: S-9, Method: STANDARD PLATE", "result": "inactive; negative"}, {"measurement": "mutagenic call", "setting": "Test System: AMES SALMONELLA TYPHIMURIUM, Strain/Indicator: TA1537, Metabolic Activation: HAMSTER, LIVER, S-9, AROCLOR 1254 (10%), Method: PREINCUBATION", "result": "inactive; negative"}, {"measurement": "mutagenic call", "setting": "Test System: AMES SALMONELLA TYPHIMURIUM, Strain/Indicator: TA1537, Metabolic Activation: HAMSTER, LIVER, S-9, AROCLOR 1254 (30%), Method: PREINCUBATION", "result": "inactive; negative"}, {"measurement": "mutagenic call", "setting": "Test System: AMES SALMONELLA TYPHIMURIUM, Strain/Indicator: TA1537, Metabolic Activation: NONE, Method: PREINCUBATION", "result": "inactive; negative"}, {"measurement": "mutagenic call", "setting": "Test System: AMES SALMONELLA TYPHIMURIUM, Strain/Indicator: TA1537, Metabolic Activation: NONE, Method: STANDARD PLATE", "result": "inactive; negative"}, {"measurement": "mutagenic call", "setting": "Test System: AMES SALMONELLA TYPHIMURIUM, Strain/Indicator: TA1537, Metabolic Activation: RAT, LIVER, S-9, AROCLOR 1254 (10%), Method: PREINCUBATION", "result": "inactive; negative"}, {"measurement": "mutagenic call", "setting": "Test System: AMES SALMONELLA TYPHIMURIUM, Strain/Indicator: TA1537, Metabolic Activation: RAT, LIVER, S-9, AROCLOR 1254 (30%), Method: PREINCUBATION", "result": "inactive; negative"}, {"measurement": "mutagenic call", "setting": "Test System: AMES SALMONELLA TYPHIMURIUM, Strain/Indicator: TA1537, Metabolic Activation: RAT, LIVER, S-9, AROCLOR 1254, Method: STANDARD PLATE", "result": "inactive; negative"}, {"measurement": "mutagenic call", "setting": "Test System: AMES SALMONELLA TYPHIMURIUM, Strain/Indicator: TA1537, Metabolic Activation: RAT, LIVER, S-9, AROCLOR, Method: STANDARD PLATE", "result": "inactive; negative"}, {"measurement": "mutagenic call", "setting": "Test System: E. COLI, Strain/Indicator: WP2 UVRA, Metabolic Activation: NONE, Method: FLUCTUATION", "result": "active; positive"}]}
{"compound": "Clc1ccc(-c2ccccc2)cc1", "values": [{"measurement": "mutagenic call", "setting": "End Point: In vitro micronucleus, Test System: Chinese hamster lung fibroblasts (V79 cells), Metabolic Activation: None", "result": "inactive; negative"}, {"measurement": "mutagenic call", "setting": "End Point: In vivo mutagenicity, Test System: Lung, Species: Rat, Strain/Sex: Big Blue/male, Route: Intraperitoneal", "result": "inactive; negative (2-fold increase in mutant frequency for 4-chlorobiphenyl and its metab"}, {"measurement": "mutagenic call", "setting": "Test System: Chinese hamster lung fibroblasts, Strain/Indicator: V79 (HPRT)/6-thioguanine, Metabolic Activation: None, Method: Standard plate", "result": "inactive; negative. study examines mutagenicity of metabolites synthesized in lab and iden"}]}
